Test system: alpha-2C adrenergic receptor (α2CR)
Assay: in vivo PET receptor occupancy, competition with […]ORM-13070
Set-up: species or system Macaca fascicularis

Work on BAY 292 yielded an EC50 of 0.03339 ± 0.01191 µg/mL.

Source: PMC11563544 (Journal of Cerebral Blood Flow & Metabolism, 2024)
